Assay [1] relates to Phosphorylated Ribosomal Protein S6 (RPS6) in THP-1 cells. The assay is described as follows: THP-1 RPS6 ELISA Assay. It is filed as cell-based. As to conditions: Homo sapiens, 2 hours compound, 10 nM MCP-1 for 15 minutes, Phospho-RPS6 ELISA, read-out: PI3Kγ_THP1_RPS6_ELISA IC50. The procedure:
Example A. THP-1 RPS6 ELISA Assay To measure the Phosphorylated Ribosomal Protein S6 (RPS6) in cell lysates, THP-1 cells (Human Acute Monocytic Leukemia) are purchased from ATCC (Manassas, Va.) and maintained in RPMI with 10% FBS (Gibco/Life Technologies, Carlsbad, Calif.). For the assay, THP-1 cells are serum starved overnight in RPMI, then plated in RPMI (2×10^5 cells/well in 90 μL) into 96-well flat-bottom tissue culture treated plates (Corning, Corning, N.Y.), in the presence or absence of a concentration range of test compounds. Covered plates are incubated for 2 hours at 37° C., 5% CO2 then treated with or without 10 nM MCP-1 (MYBioSource, San Diego, Calif.) for 15 minutes at 37° C., 5% CO2. Plates are centrifuged at 1600 RPM and supernatants are removed. Cells are lysed in Lysis Buffer (Cell Signaling, Danvers, Mass.) with Protease Inhibitor (Calbiochem/EMD, Germany), PMSF (Sigma, St Louis Mo.), HALTS (Thermo Fisher, Rockford, Ill.) for 30 min on wet ice. Cell lysates are frozen at −80° C. before testing. The lysates are tested in the Human/Mouse/Rat Phospho-RPS6 ELISA (R&D Systems, Inc. Minn, Minn.). The plate is measured using a microplate reader (SpectraMax M5-Molecular Devices, LLC Sunnyvale, Calif.) set to 450 nm with a wavelength correction of 540. IC50 determination is performed by fitting the curve of inhibitor percent inhibition versus the log of the inhibitor concentration using the GraphPad Prism 5.0 software.

Assay [2] deals with PI3Kδ (p110δ/p85α) Recombinant Human Protein (Homo sapiens (Human), UniProt O00329). The assay is described as follows: PI3Kδ Scintillation Proximity Assay. It counts as biochemical. As to conditions: 20 μM PIP2, 2 μM ATP, 3.4 nM PI3Kδ, 120 min. From the text: Example C. PI3Kδ Scintillation Proximity Assay
[γ-^33P]ATP (10 mCi/mL) and Wheat Germ Agglutinin (WGA) YSi SPA Scintillation Beads was purchased from Perkin Elmer (Waltham, Mass.). Lipid kinase substrate, D-myo-Phosphatidylinositol 4,5-bisphosphate (PtdInS(4,5)P2)D (+)-sn-1,2-di-O-octanoylglyceryl, 3-O-phospho linked (PIP2), CAS 204858-53-7, was purchased from Echelon Biosciences (Salt Lake City, Utah). PI3Kδ (p110δ/p85α) Recombinant Human Protein was purchased from Eurofins (St Charles, Mo.). ATP, MgCl2, DTT, EDTA, MOPS and CHAPS were purchased from Sigma Aldrich (St. Louis, Mo.).
(§1) The kinase reaction was conducted in polystyrene 384-well Greiner Bio-one white plate from Thermo Fisher Scientific in a final volume of 25 μL. Inhibitors were first diluted serially in DMSO and added to the plate wells before the addition of other reaction components. The final concentration of DMSO in the assay was 2%. The PI3Kδ assay was carried out at room temperature in 20 mM MOPS, pH 6.7, 10 mM MgCl2, 5 mM DTT and CHAPS 0.03%. Reactions were initiated by the addition of ATP, the final reaction mixture consisted of 20 μM PIP2, 2 μM ATP, 0.5 μCi [γ-^33P]ATP, 3.4 nM PI3Kδ. Reactions were incubated for 120 min and terminated by the addition of 40 μL SPA beads suspended in quench buffer: 163 mM potassium phosphate pH 7.8, 20% glycerol, 25 mM EDTA. The final concentration of SPA beads is 1.0 mg/mL. After the plate sealing, plates were shaken overnight at room temperature and centrifuged at 1500 rpm for 10 min, the radioactivity of the product was determined by scintillation counting on Topcount (PerkinElmer). IC50 determination was performed by fitting the curve of percent of the solvent control activity versus the log of the inhibitor concentration using the GraphPad Prism 6.0 software.
On the technique in general: In a scintillation proximity assay essentially only radioactivity close to the scintillant gives light.

Assay [3] addresses PI3Kγ (p110γ) Recombinant Human Protein (Homo sapiens (Human), UniProt P48736). Briefly: PI3K-γ Scintillation Proximity Assay. It counts as biochemical. As to conditions: 20 μM PIP2, 2 μM ATP, 13 nM PI3Kγ, 120 min.
Text: Example B. PI3K-γ Scintillation Proximity Assay
[γ-^33P]ATP (10 mCi/mL) and Wheat Germ Agglutinin (WGA) YSi SPA Scintillation Beads was purchased from Perkin Elmer (Waltham, Mass.). Lipid kinase substrate, D-myo-Phosphatidylinositol 4,5-bisphosphate (PtdInS(4,5)P2)D (+)-sn-1,2-di-O-octanoylglyceryl, 3-O-phospho linked (PIP2), CAS 204858-53-7, was purchased from Echelon Biosciences (Salt Lake City, Utah). PI3Kγ (p110γ) Recombinant Human Protein was purchased from Life technology (Grand Island, N.Y.). ATP, MgCl2, DTT, EDTA, MOPS and CHAPS were purchased from Sigma Aldrich (St. Louis, Mo.).
as §1, with “PI3Kγ” for “PI3Kδ”, “[γ-^33p]ATP, 13” for “[γ-^33P]ATP, 3.4”, “PI3Kγ.” for “PI3Kδ.”

pIC50: −log10 of the molar value. Structures can show the parent of a compound that is named as a salt. A value given as a limit tells only on which side of the number the result lay.

PI3Kγ (p110γ) Recombinant Human Protein, sequence (P48736 whole entry): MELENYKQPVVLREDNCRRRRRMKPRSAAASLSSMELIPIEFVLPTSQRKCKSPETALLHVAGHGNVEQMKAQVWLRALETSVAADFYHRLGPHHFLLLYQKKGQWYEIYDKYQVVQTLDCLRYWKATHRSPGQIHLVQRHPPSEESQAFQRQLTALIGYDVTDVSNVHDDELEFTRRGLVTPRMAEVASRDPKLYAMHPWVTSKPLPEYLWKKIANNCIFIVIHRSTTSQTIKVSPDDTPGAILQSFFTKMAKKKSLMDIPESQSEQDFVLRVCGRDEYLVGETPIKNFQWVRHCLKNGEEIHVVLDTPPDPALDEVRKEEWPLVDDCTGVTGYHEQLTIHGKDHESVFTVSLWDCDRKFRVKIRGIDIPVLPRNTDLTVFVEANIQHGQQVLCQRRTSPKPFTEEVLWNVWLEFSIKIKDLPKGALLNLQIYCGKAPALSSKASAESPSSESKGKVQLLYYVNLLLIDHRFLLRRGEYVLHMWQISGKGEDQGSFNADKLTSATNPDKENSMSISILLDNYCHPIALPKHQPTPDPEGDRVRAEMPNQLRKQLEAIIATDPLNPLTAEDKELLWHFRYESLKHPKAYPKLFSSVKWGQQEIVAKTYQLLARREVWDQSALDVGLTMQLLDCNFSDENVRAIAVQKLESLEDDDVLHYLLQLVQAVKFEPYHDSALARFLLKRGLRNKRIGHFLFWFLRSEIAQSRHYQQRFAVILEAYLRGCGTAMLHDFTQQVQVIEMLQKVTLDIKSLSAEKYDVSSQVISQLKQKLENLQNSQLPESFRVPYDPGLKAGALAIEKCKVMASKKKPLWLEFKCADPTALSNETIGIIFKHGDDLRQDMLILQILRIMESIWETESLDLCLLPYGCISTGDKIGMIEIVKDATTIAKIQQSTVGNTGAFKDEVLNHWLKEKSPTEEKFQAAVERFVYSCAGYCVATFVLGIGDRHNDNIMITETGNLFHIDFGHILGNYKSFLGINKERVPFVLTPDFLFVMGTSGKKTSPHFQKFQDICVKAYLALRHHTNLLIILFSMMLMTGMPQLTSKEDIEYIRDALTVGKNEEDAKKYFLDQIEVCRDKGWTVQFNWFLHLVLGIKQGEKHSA
PI3Kδ (p110δ/p85α) Recombinant Human Protein, sequence (O00329 whole entry): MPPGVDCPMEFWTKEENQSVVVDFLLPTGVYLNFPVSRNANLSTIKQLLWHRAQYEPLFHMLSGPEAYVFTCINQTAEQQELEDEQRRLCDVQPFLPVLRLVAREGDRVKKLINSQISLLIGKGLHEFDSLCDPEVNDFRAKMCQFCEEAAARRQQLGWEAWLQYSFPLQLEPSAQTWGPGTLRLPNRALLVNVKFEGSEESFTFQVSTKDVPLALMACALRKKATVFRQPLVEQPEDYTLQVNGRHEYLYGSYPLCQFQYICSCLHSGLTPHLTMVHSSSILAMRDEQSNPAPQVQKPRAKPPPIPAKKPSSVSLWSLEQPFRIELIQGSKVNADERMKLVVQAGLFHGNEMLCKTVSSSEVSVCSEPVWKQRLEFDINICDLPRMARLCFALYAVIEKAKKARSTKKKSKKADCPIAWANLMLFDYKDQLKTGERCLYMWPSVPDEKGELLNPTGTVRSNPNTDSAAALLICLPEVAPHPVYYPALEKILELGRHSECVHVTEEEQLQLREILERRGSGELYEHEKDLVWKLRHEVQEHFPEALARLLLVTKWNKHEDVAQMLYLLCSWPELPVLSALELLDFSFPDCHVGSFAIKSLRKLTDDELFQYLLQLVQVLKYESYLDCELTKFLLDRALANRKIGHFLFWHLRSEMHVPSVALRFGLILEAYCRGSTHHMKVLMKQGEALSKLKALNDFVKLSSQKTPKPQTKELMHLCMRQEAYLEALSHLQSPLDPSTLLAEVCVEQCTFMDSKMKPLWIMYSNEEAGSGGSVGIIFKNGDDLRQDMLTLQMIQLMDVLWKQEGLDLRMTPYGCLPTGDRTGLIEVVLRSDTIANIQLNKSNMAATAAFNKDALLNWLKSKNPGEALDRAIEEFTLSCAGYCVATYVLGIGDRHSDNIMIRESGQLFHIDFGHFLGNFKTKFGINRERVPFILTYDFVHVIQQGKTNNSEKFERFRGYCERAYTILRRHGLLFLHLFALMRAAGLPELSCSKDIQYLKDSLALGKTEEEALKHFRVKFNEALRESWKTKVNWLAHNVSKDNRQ
PI3Kδ (p110δ/p85α) Recombinant Human Protein, sequence (P27986 whole entry partner): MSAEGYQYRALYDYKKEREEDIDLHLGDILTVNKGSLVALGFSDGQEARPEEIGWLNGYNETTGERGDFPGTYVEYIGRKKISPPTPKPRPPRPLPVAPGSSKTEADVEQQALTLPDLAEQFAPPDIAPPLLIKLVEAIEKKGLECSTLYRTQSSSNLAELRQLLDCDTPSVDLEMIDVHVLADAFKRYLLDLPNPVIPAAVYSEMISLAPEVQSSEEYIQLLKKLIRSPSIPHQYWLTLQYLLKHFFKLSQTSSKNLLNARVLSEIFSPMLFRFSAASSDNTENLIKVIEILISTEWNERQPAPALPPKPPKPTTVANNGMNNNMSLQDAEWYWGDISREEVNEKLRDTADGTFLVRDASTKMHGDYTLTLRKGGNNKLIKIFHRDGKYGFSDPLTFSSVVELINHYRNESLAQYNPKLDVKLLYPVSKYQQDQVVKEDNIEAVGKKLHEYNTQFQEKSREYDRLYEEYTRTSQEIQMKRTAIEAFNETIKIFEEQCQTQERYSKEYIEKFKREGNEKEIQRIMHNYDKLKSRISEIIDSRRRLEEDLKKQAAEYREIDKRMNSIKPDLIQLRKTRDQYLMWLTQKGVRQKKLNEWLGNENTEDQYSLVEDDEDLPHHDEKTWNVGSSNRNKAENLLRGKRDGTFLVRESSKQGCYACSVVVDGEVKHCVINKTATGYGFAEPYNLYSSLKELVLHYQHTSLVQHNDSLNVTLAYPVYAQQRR

With `CC(c1ccccc1)N1Cc2cc(-c3cnc4c(N)ncnn34)ccc2C1=O` (racemic) [Example 12, 5-(4-Aminoimidazo[2,1-f][1,2,4]triazin-7-yl)-2-(1-phenylethyl)isoindolin-1-one, trifluoroacetate salt], the pIC50 (in general, −log10 of the IC50, conventionally taken in molar units) in assay [1] is no more than 6.00; in assay [2], no less than 6.30; in assay [3] it was no less than 7.00.

Regarding `C[C@@H](C1CC1)N1Cc2cc(-c3cnc4c(N)nc(C(=O)N5CC(C)(C)C5)cn34)cc(S(C)(=O)=O)c2C1=O` [Example 29c, (S)-5-(8-Amino-6-(3,3-dimethylazetidine-1-carbonyl)imidazo[1,2-a]pyrazin-3-yl)-2-(1-cyclopropylethyl)-7-(methylsulfonyl)isoindolin-1-one, trifluoroacetate salt], the pIC50 was greater than 6.00 in assay [1], no less than 6.30 in assay [2] and no less than 7.00 in assay [3].

In the case of `C[C@@H](C1CC1)N1Cc2cc(-c3cnc4c(N)nc(-c5ccnn5C)cn34)cc(S(C)(=O)=O)c2C1=O` [Example 36, (S)-5-(8-Amino-6-(1-methyl-1H-pyrazol-5-yl)imidazo[1,2-a]pyrazin-3-yl)-2-(1-cyclopropylethyl)-7-(methylsulfonyl)isoindolin-1-one, trifluoroacetate salt], the figures for the pIC50 in assay [1], in assay [2] and in assay [3] were no less than 6.30, no less than 6.30 and no less than 7.00, respectively.

`C[C@@H](C1CC1)N1Cc2cc(-c3cnc4c(N)ncnn34)ccc2C1=O` [Example 6, (S)-5-(4-Aminoimidazo[2,1-f][1,2,4]triazin-7-yl)-2-(1-cyclopropylethyl)isoindolin-1-one]: the results for the negative logarithm of the IC50 (pIC50) in assay [1], in assay [2] and in assay [3] were no more than 6.00, no more than 5.70 and no less than 7.00, respectively.

As for `C[C@@H](C1CC1)N1Cc2cc(-c3cnc4c(N)nc(-c5cnn(C)c5)cn34)cc(S(C)(=O)=O)c2C1=O` [Example 35, (S)-5-(8-Amino-6-(1-methyl-1H-pyrazol-4-yl)imidazo[1,2-a]pyrazin-3-yl)-2-(1-cyclopropylethyl)-7-(methylsulfonyl)isoindolin-1-one, trifluoroacetate salt], the pIC50 in assay [1] was no less than 6.30; in assay [2] it was no less than 6.30; in assay [3], no less than 7.00.

As for `C[C@@H](C1CC1)N1Cc2cc(-c3cnc4c(N)ncnn34)cc(Cl)c2C1=O` [Example 7, (S)-5-(4-Aminoimidazo[2,1-f][1,2,4]triazin-7-yl)-7-chloro-2-(1-cyclopropylethyl)isoindolin-1-one], the pIC50 is no more than 6.00 in assay [1], no less than 6.30 in assay [2] and no less than 7.00 in assay [3].

In the case of `C[C@@H](C1CC1)N1Cc2cc(-c3cnc4c(N)nc(C(=O)NC5CC(O)C5)cn34)ccc2C1=O` (stereo partly drawn) [Example 31, (S)-8-Amino-3-(2-(1-cyclopropylethyl)-1-oxoisoindolin-5-yl)-N-(3-hydroxycyclobutyl)imidazo[1,2-a]pyrazine-6-carboxamide, trifluoroacetate salt], the pIC50 in assay [1] is no more than 6.00; in assay [2], no more than 5.70; in assay [3], no less than 7.00.

For `C[C@@H](C1CC1)N1Cc2cc(-c3cnc4c(N)nc(C(=O)N5CCC5)cn34)cc(S(C)(=O)=O)c2C1=O` [Example 29a, (S)-5-(8-Amino-6-(azetidine-1-carbonyl)imidazo[1,2-a]pyrazin-3-yl)-2-(1-cyclopropylethyl)-7-(methylsulfonyl)isoindolin-1-one, trifluoroacetate salt], the pIC50 was no more than 6.00 in assay [1], greater than 5.70 in assay [2] and no less than 7.00 in assay [3].

As to `Cc1ncc(-c2cn3c(-c4cc5c(c(S(C)(=O)=O)c4)C(=O)N([C@@H](C)C4CC4)C5)cnc3c(N)n2)s1` [Example 34, (S)-5-(8-Amino-6-(2-methylthiazol-5-yl)imidazo[1,2-a]pyrazin-3-yl)-2-(1-cyclopropylethyl)-7-(methylsulfonyl)isoindolin-1-one, trifluoroacetate salt], the pIC50 in assay [1], in assay [2] and in assay [3] was no less than 7.00 throughout.

With `CC(O)c1cc(-c2cnc3c(N)ncnn23)cc2c1C(=O)N([C@@H](C)C1CC1)C2` (mixture of isomers) [Example 16, 5-(4-Aminoimidazo[2,1-f][1,2,4]triazin-7-yl)-2-((S)-1-cyclopropylethyl)-7-(1-hydroxyethyl)isoindolin-1-one trifluoroacetate salt], the pIC50 was no more than 6.00 in assay [1], no less than 6.30 in assay [2] and no less than 7.00 in assay [3].

For the compound `C[C@@H](C1CC1)N1Cc2cc(-c3cnc4c(N)nc(C(=O)NC56CC(C5)C6)cn34)cc(S(C)(=O)=O)c2C1=O` (single isomer, unassigned) [Example 29b, trifluoroacetate salt], the results for the pIC50 in assay [1], in assay [2] and in assay [3] were greater than 6.00, no less than 6.30 and no less than 7.00, respectively.

Turning to `C[C@@H](C1CC1)N1Cc2cc(-c3cnc4c(N)nc(C(F)(F)F)cn34)cc(S(C)(=O)=O)c2C1=O` [Example 3, (S)-5-(8-Amino-6-(trifluoromethyl)imidazo[1,2-a]pyrazin-3-yl)-2-(1-cyclopropylethyl)-7-(methylsulfonyl)isoindolin-1-one], the pIC50 in assay [1] is no more than 6.00; in assay [2] it was greater than 5.70; in assay [3], no less than 7.00.

As for `CC(C1CC1)n1cc2cc(-c3cnc4c(N)ncnn34)cnc2n1` (stereo not drawn) [Example 25, 7-(2-(1-Cyclopropylethyl)-2H-pyrazolo[3,4-b]pyridin-5-yl)imidazo[2,1-f][1,2,4]triazin-4-amine trifluoroacetate salt], the pIC50 in assay [1] was no more than 6.00; in assay [2], no more than 5.70; in assay [3] it was no less than 7.00.

On to `Cc1cc(-c2cnc3c(N)ncnn23)cc2cn(C(C)C3CC3)nc12` (racemic) [Example 18, 7-(2-(1-Cyclopropylethyl)-7-methyl-2H-indazol-5-yl)imidazo[2,1-f][1,2,4]triazin-4-amine trifluoroacetate salt], for which the results for the pIC50 in assay [1], in assay [2] and in assay [3] were no more than 6.00, no more than 5.70 and no less than 7.00, respectively.
